Experimental data as given in ChEMBL document CHEMBL4680293, “Tubulin inhibitory activity of a novel colchicine-binding compounds based on a dinaphthospiropyranran scaffold” (Bioorg Med Chem, 2021).
Calls of active or inactive are those of the source. The rule behind the calls is not given here.

Assays:
COLO 205 = experiment: Anti-cancer activity against human COLO205 cells assessed as cell growth inhibition measured after 48 hrs by SRB method; assay type: functional, cell-based
HCC 2998 = experiment: Anti-cancer activity against human HCC2998 cells assessed as cell growth inhibition measured after 48 hrs by SRB method; assay type: functional, cell-based
KM12 = experiment: Anti-cancer activity against human KM12 cells assessed as cell growth inhibition measured after 48 hrs by SRB method; assay type: functional, cell-based
SW-620 = experiment: Anti-cancer activity against human SW-620 cells assessed as cell growth inhibition measured after 48 hrs by SRB method; assay type: functional, cell-based
SF-268 = experiment: Anti-cancer activity against human SF-268 cells assessed as cell growth inhibition measured after 48 hrs by SRB method; assay type: functional, cell-based
SF-295 = experiment: Anti-cancer activity against human SF-295 cells assessed as cell growth inhibition measured after 48 hrs by SRB method; assay type: functional, cell-based
SF-539 = experiment: Anti-cancer activity against human SF-539 cells assessed as cell growth inhibition measured after 48 hrs by SRB method; assay type: functional, cell-based
Malme-3M = experiment: Anti-cancer activity against human Malme-3M cells assessed as cell growth inhibition measured after 48 hrs by SRB method; assay type: functional, cell-based
MDA-MB-435 = experiment: Anti-cancer activity against human MDA-MB-435 cells assessed as cell growth inhibition measured after 48 hrs by SRB method; assay type: functional, cell-based
SK-MEL-2 = experiment: Anti-cancer activity against human SK-MEL-2 cells assessed as cell growth inhibition measured after 48 hrs by SRB method; assay type: functional, cell-based
OVCAR-4 = experiment: Anti-cancer activity against human OVCAR-4 cells assessed as cell growth inhibition measured after 48 hrs by SRB method; assay type: functional, cell-based
MCF7 = experiment: Anti-cancer activity against human MCF-7 cells assessed as cell growth inhibition measured after 48 hrs by SRB method; assay type: functional, cell-based
MDA-MB-231 = experiment: Anti-cancer activity against human MDA-MB-231 cells assessed as cell growth inhibition measured after 48 hrs by SRB method; assay type: functional, cell-based
Hs-578T = experiment: Anti-cancer activity against human HS-578T cells assessed as cell growth inhibition measured after 48 hrs by SRB method; assay type: functional, cell-based
BT-549 = experiment: Anti-cancer activity against human BT-549 cells assessed as cell growth inhibition measured after 48 hrs by SRB method; assay type: functional, cell-based
MDA-MB-468 = experiment: Anti-cancer activity against human MDA-MB-468 cells assessed as cell growth inhibition measured after 48 hrs by SRB method; assay type: functional, cell-based
A549 = experiment: Anti-cancer activity against human A549/ATCC cells assessed as cell growth inhibition measured after 48 hrs by SRB method; assay type: functional, cell-based
EKVX = experiment: Anti-cancer activity against human EKVX cells assessed as cell growth inhibition measured after 48 hrs by SRB method; assay type: functional, cell-based
HOP-92 = experiment: Anti-cancer activity against human HOP-92 cells assessed as cell growth inhibition measured after 48 hrs by SRB method; assay type: functional, cell-based
NCI-H23 = experiment: Anti-cancer activity against human NCI-H23 cells assessed as cell growth inhibition measured after 48 hrs by SRB method; assay type: functional, cell-based
TK-10 = experiment: Anti-cancer activity against human TK-10 cells assessed as cell growth inhibition measured after 48 hrs by SRB method; assay type: functional, cell-based
UO-31 = experiment: Anti-cancer activity against human UO-31 cells assessed as cell growth inhibition measured after 48 hrs by SRB method; assay type: functional, cell-based
Leukemia cell = experiment: Anti-cancer activity against human leukemia cells assessed as cell growth inhibition measured after 48 hrs by SRB method; assay type: functional
Tubulin (Homo sapiens) = Tubulin (Homo sapiens) (UniProt P68371+Q9H4B7+P0DPH7+P68366+Q13509+Q71U36+P04350+Q3ZCM7+P07437+P68363+Q9BQE3+Q6PEY2+Q13885+Q9BVA1+Q9BUF5); experiment: Disruption of tubulin in human HCT-116 cells assessed as induction of tubulin reorganization at 20 uM after 48 hrs by DAPI staining based immunofluorescence method; assay type: cell-based
[1] = Anti-cancer activity against human ovarian cancer cells assessed as cell growth inhibition measured after 48 hrs by SRB method; assay type: functional; conditions: Ovarian cancer cell line
[2] = Anti-cancer activity against human renal cancer cells assessed as cell growth inhibition measured after 48 hrs by SRB method; assay type: functional; conditions: Renal cancer cell line
A498 = experiment: Anti-cancer activity against human A498 cells assessed as cell growth inhibition measured after 48 hrs by SRB method; assay type: functional, cell-based

SMILES: C1=C2CNCC3=Cc4c(ccc5ccccc45)OC23Oc2ccc3ccccc3c21
- IC50 (COLO 205; COLO 205, 48 h): 3.72 µM
- GI50 (COLO 205; COLO 205, time 48 hrs): 2.09 µM
- TGI (COLO 205; COLO 205, time 48 hrs): 4.27 µM
- CC50 (COLO 205; COLO 205, time 48 hrs, read-out: LC50 (the source's name)): 5.07 µM
- IC50 (HCC 2998; HCC 2998, 48 h): 8.51 µM
- GI50 (HCC 2998; HCC 2998, time 48 hrs): 3.98 µM
- LC50 (lethal concentration, 50% cell kill) (HCC 2998; HCC 2998, time 48 hrs): 4.11 µM
- TGI (HCC 2998; HCC 2998, time 48 hrs): 19.5 µM
- IC50 (KM12; KM12, 48 h): 5.75 µM
- GI50 (KM12; KM12, time 48 hrs): 3.8 µM
- LC50 (KM12; KM12, time 48 hrs): 4.25 µM
- TGI (KM12; KM12, time 48 hrs): 16.2 µM
- IC50 (SW-620; SW-620, 48 h): 3.09 µM
- GI50 (SW-620; SW-620, time 48 hrs): 2.51 µM
- TGI (SW-620; SW-620, time 48 hrs): 10.5 µM
- CC50 (SW-620; SW-620, time 48 hrs, read-out: LC50 (the source's name)): 4.28 µM
- IC50 (SF-268; SF-268, 48 h): 12.3 µM
- GI50 (SF-268; SF-268, time 48 hrs): 5.62 µM
- TGI (SF-268; SF-268, time 48 hrs): 22.4 µM
- CC50 (SF-268; SF-268, time 48 hrs, read-out: LC50 (the source's name)): 4.15 µM
- IC50 (SF-295; SF-295, 48 h): 5.25 µM
- GI50 (SF-295; SF-295, time 48 hrs): 3.09 µM
- TGI (SF-295; SF-295, time 48 hrs): 15.5 µM
- CC50 (SF-295; SF-295, time 48 hrs, read-out: LC50 (the source's name)): 4 µM
- IC50 (SF-539; SF-539, 48 h): 6.03 µM
- GI50 (SF-539; SF-539, time 48 hrs): 3.39 µM
- LC50 (concentration killing 50% of cells) (SF-539; SF-539, time 48 hrs): 4 µM
- TGI (SF-539; SF-539, time 48 hrs): 14.8 µM
- IC50 (Malme-3M; 48 h): 36.3 µM
- GI50 (Malme-3M; time 48 hrs): 12.6 µM
- LC50 (50% lethal concentration) (Malme-3M; time 48 hrs): 4 µM
- TGI (Malme-3M; time 48 hrs): 38 µM
- IC50 (MDA-MB-435; MDA-MB-435, 48 h): 2.4 µM
- GI50 (MDA-MB-435; MDA-MB-435, time 48 hrs): 1.41 µM
- TGI (MDA-MB-435; MDA-MB-435, time 48 hrs): 3.24 µM
- IC50 (SK-MEL-2; SK-MEL-2, 48 h): 25.7 µM
- GI50 (SK-MEL-2; SK-MEL-2, time 48 hrs): 5.5 µM
- TGI (SK-MEL-2; SK-MEL-2, time 48 hrs): 22.9 µM
- CC50 (SK-MEL-2; SK-MEL-2, time 48 hrs, read-out: LC50 (the source's name)): 4.03 µM
- IC50 (OVCAR-4; OVCAR-4, 48 h): 11.7 µM
- GI50 (OVCAR-4; OVCAR-4, time 48 hrs): 4.68 µM
- LC50 (OVCAR-4; OVCAR-4, time 48 hrs): 4.21 µM
- TGI (OVCAR-4; OVCAR-4, time 48 hrs): 20 µM
- IC50 (MCF7; MCF7, 48 h): 3.98 µM
- GI50 (MCF7; MCF7, time 48 hrs): 2.82 µM
- TGI (MCF7; MCF7, time 48 hrs): 12.6 µM
- CC50 (MCF7; MCF7, time 48 hrs, read-out: LC50 (the source's name)): 4.26 µM
- IC50 (MDA-MB-231; MDA-MB-231, 48 h): 22.9 µM
- GI50 (MDA-MB-231; MDA-MB-231, time 48 hrs): 9.33 µM
- TGI (MDA-MB-231; MDA-MB-231, time 48 hrs): 26.9 µM
- CC50 (MDA-MB-231; MDA-MB-231, time 48 hrs, read-out: LC50 (the source's name)): 4.12 µM
- IC50 (Hs-578T; 48 h): 100 µM
- GI50 (Hs-578T; time 48 hrs): 2.24 µM
- TGI (Hs-578T; time 48 hrs): 10.5 µM
- CC50 (Hs-578T; time 48 hrs, read-out: LC50 (the source's name)): 4 µM
- IC50 (BT-549; BT-549, 48 h): 40.7 µM
- GI50 (BT-549; BT-549, time 48 hrs): 11.2 µM
- TGI (BT-549; BT-549, time 48 hrs): 40.7 µM
- CC50 (BT-549; BT-549, time 48 hrs, read-out: LC50 (the source's name)): 4 µM
- IC50 (MDA-MB-468; MDA-MB-468, 48 h): 5.89 µM
- GI50 (MDA-MB-468; MDA-MB-468, time 48 hrs): 2.04 µM
- TGI (MDA-MB-468; MDA-MB-468, time 48 hrs): 7.59 µM
- CC50 (MDA-MB-468; MDA-MB-468, time 48 hrs, read-out: LC50 (the source's name)): 4.32 µM
- IC50 (A549; A549, 48 h): 6.92 µM
- GI50 (A549; A549, time 48 hrs): 4.47 µM
- TGI (A549; A549, time 48 hrs): 20.4 µM
- CC50 (A549; A549, time 48 hrs, read-out: LC50 (the source's name)): 4.14 µM
- IC50 (EKVX; 48 h): 20 µM
- GI50 (EKVX; time 48 hrs): 5.75 µM
- TGI (EKVX; time 48 hrs): 33.9 µM
- IC50 (HOP-92; HOP-92, 48 h): 26.9 µM
- GI50 (HOP-92; HOP-92, time 48 hrs): 2.88 µM
- TGI (HOP-92; HOP-92, time 48 hrs): 17 µM
- IC50 (NCI-H23; NCI-H23, 48 h): 20.9 µM
- GI50 (NCI-H23; NCI-H23, time 48 hrs): 6.92 µM
- TGI (NCI-H23; NCI-H23, time 48 hrs): 31.6 µM
- IC50 (TK-10; TK-10, 48 h): 26.9 µM
- GI50 (TK-10; TK-10, time 48 hrs): 9.12 µM
- TGI (TK-10; TK-10, time 48 hrs): 27.5 µM
- IC50 (UO-31; UO-31, 48 h): 17.4 µM
- GI50 (UO-31; UO-31, time 48 hrs): 3.55 µM
- TGI (UO-31; UO-31, time 48 hrs): 21.4 µM
- CC50 (UO-31; UO-31, time 48 hrs, read-out: LC50 (the source's name)): 4.16 µM
- GI50 (Leukemia cell): 3.16 µM
- Activity (Tubulin (Homo sapiens)): Active
- GI50 [1]: 3.63 µM
- GI50 [2]: 3.98 µM
- IC50 (A498; A498, 48 h): 16.2 µM
- GI50 (A498; A498, time 48 hrs): 3.89 µM
- TGI (A498; A498, time 48 hrs): 17 µM
- CC50 (A498; A498, time 48 hrs, read-out: LC50 (the source's name)): 4.34 µM
